Source: BindingDB's records for doi:10.1016/s0014-2999(01)01087-1 (Janssen Research Foundation, 2001)

Legend:
D(3) dopamine receptor = D(3) dopamine receptor (Homo sapiens, UniProt P35462)
[1] = target: 5-hydroxytryptamine receptor 1A (Homo sapiens, UniProt P08908)
[2] = target: 5-hydroxytryptamine receptor 2A (Homo sapiens, UniProt P28223)
[3] = target: Delta-type opioid receptor (Homo sapiens, UniProt P41143)
Substance-P receptor = Substance-P receptor (Homo sapiens, UniProt P25103)
[4] = target: Kappa-type opioid receptor (Cavia porcellus, UniProt P41144)
[5] = target: Gastrin/cholecystokinin type B receptor (Homo sapiens, UniProt P32239)
[6] = target: 5-hydroxytryptamine receptor 6 (Homo sapiens, UniProt P50406)
Mu-type opioid receptor = Mu-type opioid receptor (Homo sapiens, UniProt P35372)
Mu-type opioid receptor, sequence (P35372 whole entry): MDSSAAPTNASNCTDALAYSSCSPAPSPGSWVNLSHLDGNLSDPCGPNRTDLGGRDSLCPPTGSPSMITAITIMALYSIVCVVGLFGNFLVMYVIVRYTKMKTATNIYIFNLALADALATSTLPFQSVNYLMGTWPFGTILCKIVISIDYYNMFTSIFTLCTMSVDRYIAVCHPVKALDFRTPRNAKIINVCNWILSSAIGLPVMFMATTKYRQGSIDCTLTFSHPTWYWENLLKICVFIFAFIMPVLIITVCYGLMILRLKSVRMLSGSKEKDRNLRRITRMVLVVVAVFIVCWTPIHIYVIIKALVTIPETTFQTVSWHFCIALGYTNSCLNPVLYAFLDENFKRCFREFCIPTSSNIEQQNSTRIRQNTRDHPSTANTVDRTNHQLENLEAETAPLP

[7] = target: Sodium-dependent dopamine transporter (Rattus norvegicus, UniProt P23977)
Histamine H1 receptor = Histamine H1 receptor (Homo sapiens, UniProt P35367)
[8] = target: Beta-3 adrenergic receptor (Homo sapiens, UniProt P13945)
Beta-3 adrenergic receptor, sequence (P13945 whole entry): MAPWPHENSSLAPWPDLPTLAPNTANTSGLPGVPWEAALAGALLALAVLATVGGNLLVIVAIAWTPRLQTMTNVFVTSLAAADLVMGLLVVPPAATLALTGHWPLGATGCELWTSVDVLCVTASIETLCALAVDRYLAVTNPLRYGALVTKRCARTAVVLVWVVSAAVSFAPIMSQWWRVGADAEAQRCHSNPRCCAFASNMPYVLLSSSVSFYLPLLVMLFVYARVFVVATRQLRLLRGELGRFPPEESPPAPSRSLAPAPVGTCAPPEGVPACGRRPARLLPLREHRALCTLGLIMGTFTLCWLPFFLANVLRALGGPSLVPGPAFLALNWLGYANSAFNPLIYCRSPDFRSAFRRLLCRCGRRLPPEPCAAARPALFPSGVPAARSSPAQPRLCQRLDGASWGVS

[9] = target: 5-hydroxytryptamine receptor 1D (Homo sapiens, UniProt P28221)
[10] = target: 5-hydroxytryptamine receptor 7 (Homo sapiens, UniProt P34969)
[11] = target: 5-hydroxytryptamine receptor 1E (Homo sapiens, UniProt P28566)
D(4) dopamine receptor = D(4) dopamine receptor (Homo sapiens, UniProt P21917)
[12] = target: Beta-2 adrenergic receptor (Homo sapiens, UniProt P07550)
Beta-2 adrenergic receptor, sequence (P07550 whole entry): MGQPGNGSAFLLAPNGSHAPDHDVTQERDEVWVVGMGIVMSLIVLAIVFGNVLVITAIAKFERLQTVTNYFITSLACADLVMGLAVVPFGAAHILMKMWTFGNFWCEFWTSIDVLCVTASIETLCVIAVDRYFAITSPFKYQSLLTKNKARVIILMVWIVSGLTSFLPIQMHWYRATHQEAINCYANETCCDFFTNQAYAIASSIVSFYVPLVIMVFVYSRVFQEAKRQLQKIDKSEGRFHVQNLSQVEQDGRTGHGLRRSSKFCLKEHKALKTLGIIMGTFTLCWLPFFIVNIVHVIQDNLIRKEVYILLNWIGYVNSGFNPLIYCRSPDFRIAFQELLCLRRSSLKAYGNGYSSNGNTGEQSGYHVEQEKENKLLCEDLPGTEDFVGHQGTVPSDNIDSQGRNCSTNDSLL

[13] = target: 5-hydroxytryptamine receptor 3A (Mus musculus, UniProt P23979)
5-hydroxytryptamine receptor 3A, sequence (P23979 as listed by the source): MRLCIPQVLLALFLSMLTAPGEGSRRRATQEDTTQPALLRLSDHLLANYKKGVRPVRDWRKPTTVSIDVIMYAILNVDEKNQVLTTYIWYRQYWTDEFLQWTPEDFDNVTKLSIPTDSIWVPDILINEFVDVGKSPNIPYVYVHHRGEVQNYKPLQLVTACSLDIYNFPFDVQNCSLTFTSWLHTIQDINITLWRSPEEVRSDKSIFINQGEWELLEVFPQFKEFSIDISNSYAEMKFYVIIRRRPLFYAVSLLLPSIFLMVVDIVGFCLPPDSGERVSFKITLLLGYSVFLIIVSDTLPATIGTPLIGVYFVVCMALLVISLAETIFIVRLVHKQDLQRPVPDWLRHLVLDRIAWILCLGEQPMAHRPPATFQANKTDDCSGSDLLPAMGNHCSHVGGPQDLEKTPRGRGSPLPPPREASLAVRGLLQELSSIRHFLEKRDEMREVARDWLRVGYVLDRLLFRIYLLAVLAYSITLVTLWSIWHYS

Substance-K receptor = Substance-K receptor (Homo sapiens, UniProt P21452)
Substance-K receptor, sequence (P21452 whole entry): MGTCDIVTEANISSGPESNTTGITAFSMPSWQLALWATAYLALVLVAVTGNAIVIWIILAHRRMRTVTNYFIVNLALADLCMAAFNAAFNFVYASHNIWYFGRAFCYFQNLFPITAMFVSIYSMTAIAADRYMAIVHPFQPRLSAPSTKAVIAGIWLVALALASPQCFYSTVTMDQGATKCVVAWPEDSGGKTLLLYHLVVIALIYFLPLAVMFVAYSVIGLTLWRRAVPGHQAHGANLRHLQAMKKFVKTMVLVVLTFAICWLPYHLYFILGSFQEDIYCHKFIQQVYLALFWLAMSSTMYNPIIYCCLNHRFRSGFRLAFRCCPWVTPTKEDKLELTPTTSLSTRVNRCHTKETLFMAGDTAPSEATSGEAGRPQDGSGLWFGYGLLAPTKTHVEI

Neuromedin-K receptor = Neuromedin-K receptor (Homo sapiens, UniProt P29371)
Neuromedin-K receptor, sequence (P29371 whole entry): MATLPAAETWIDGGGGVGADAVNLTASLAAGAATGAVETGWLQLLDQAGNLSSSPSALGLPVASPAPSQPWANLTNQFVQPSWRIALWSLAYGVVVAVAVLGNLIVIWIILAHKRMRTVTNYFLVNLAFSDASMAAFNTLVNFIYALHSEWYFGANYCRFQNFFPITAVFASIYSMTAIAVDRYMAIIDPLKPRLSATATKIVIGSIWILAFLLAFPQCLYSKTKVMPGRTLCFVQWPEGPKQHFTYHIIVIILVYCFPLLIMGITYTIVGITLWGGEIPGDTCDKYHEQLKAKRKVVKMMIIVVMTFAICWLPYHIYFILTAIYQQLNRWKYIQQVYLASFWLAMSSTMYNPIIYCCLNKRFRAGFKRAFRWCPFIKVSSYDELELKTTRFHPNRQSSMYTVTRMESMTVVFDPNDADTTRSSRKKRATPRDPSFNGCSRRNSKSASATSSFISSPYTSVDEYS

[14] = target: Alpha-1A adrenergic receptor (Homo sapiens, UniProt P35348)
[15] = target: 5-hydroxytryptamine receptor 5A (Homo sapiens, UniProt P47898)
[16] = target: Alpha-2B adrenergic receptor (Homo sapiens, UniProt P18089)
[17] = target: Alpha-2C adrenergic receptor (Homo sapiens, UniProt P18825)
[18] = target: 5-hydroxytryptamine receptor 1F (Homo sapiens, UniProt P30939)
B2 bradykinin receptor = B2 bradykinin receptor (Homo sapiens, UniProt P30411)
B2 bradykinin receptor, sequence (P30411 whole entry): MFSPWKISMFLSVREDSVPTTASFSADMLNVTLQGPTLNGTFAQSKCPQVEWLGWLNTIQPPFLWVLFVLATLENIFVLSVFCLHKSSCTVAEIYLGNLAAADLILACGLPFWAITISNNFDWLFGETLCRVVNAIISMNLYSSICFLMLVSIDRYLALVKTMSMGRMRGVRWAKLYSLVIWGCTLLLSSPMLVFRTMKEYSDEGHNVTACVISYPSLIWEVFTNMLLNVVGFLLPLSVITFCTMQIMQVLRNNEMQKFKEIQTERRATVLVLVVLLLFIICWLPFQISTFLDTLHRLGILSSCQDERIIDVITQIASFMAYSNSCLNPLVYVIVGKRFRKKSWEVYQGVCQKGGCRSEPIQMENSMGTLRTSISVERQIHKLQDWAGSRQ

[19] = target: Voltage-dependent L-type calcium channel subunit alpha-1C (Rattus norvegicus, UniProt P22002)
[20] = target: Gastrin/cholecystokinin type B receptor (Rattus norvegicus, UniProt P30553)
[21] = target: Glutamate receptor ionotropic, NMDA 1 (Rattus norvegicus, UniProt P35439)
[22] = target: Sodium- and chloride-dependent glycine transporter 1 (Rattus norvegicus, UniProt P28572)
[23] = target: Sodium- and chloride-dependent glycine transporter 2 (Homo sapiens, UniProt Q9Y345)
[24] = target: Cysteinyl leukotriene receptor 1 (Cavia porcellus, UniProt Q2NNR5)
[25] = target: Norepinephrine transporter (Rattus norvegicus, UniProt Q9JIA2)
Neurotensin = Neurotensin (Cavia porcellus, UniProt P32560)
[26] = target: Vasoactive intestinal polypeptide receptor 1 (Homo sapiens, UniProt P32241)
Vasoactive intestinal polypeptide receptor 1, sequence (P32241 whole entry): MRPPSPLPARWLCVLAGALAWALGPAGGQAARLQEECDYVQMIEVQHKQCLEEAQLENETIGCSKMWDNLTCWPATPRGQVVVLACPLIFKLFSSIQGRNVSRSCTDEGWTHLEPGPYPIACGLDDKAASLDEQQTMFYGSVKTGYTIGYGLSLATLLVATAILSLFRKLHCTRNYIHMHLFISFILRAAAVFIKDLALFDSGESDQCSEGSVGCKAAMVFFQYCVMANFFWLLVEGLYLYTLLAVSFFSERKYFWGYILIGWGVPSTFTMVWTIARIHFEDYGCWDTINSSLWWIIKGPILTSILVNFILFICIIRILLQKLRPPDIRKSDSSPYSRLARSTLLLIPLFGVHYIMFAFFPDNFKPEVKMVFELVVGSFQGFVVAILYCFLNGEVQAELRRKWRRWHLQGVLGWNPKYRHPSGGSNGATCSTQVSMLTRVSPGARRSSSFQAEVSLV

[27] = target: Beta-1 adrenergic receptor (Homo sapiens, UniProt P08588)
Beta-1 adrenergic receptor, sequence (P08588 whole entry): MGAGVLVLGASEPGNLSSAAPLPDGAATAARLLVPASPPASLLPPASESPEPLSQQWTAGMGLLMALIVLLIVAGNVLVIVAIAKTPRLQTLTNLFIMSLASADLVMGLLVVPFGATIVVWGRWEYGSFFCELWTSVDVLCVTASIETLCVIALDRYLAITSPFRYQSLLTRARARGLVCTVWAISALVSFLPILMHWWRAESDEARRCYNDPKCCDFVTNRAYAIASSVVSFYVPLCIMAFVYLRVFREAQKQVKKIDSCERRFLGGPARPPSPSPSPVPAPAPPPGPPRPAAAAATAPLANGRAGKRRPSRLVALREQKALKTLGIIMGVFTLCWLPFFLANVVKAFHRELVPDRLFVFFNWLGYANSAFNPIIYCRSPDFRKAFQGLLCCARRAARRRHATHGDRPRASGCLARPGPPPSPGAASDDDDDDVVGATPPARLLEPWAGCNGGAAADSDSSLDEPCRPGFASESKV

[28] = target: 5-hydroxytryptamine receptor 2C (Homo sapiens, UniProt P28335)
[29] = target: Alpha-2A adrenergic receptor (Homo sapiens, UniProt P08913)
Thromboxane A2 receptor = Thromboxane A2 receptor (Homo sapiens, UniProt P21731)

Substance-P receptor, sequence (P25103 whole entry): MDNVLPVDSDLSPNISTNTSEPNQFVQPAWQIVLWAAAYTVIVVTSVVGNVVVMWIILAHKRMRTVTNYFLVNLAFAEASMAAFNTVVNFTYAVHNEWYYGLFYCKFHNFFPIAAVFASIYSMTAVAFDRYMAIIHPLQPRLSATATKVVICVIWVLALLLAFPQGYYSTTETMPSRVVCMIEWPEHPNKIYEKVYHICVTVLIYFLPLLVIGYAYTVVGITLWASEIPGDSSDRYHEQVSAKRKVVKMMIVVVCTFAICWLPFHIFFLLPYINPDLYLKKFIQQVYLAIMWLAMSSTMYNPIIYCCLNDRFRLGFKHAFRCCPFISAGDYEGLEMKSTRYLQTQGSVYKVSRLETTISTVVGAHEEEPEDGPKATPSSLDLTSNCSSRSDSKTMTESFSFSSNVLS
5-hydroxytryptamine receptor 1A, sequence (P08908 whole entry): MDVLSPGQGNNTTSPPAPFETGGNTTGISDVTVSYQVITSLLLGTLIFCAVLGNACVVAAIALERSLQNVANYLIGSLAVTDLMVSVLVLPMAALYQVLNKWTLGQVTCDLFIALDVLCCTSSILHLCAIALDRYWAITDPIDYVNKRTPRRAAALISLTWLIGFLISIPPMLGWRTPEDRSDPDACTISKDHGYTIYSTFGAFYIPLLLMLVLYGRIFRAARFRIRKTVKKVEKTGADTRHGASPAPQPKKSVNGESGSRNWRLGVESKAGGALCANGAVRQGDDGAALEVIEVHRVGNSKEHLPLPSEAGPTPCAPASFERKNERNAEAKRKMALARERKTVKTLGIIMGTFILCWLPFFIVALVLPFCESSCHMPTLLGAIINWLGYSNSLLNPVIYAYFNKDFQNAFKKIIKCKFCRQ

With `COCCCN1CCC(NC(=O)c2cc(Cl)c(N)c3c2OCC3)CC1` [4-Amino-5-chloro-2,3-dihydro-benzofuran-7-carboxylic acid [1-(3-methoxy-propyl)-piperidin-4-yl]-amide] the Ki (D(3) dopamine receptor) was greater than 10 µM, the Ki [1] was greater than 10 µM and the Ki [2] was greater than 10 µM. For the same compound, the Ki [3] was greater than 10 µM, the Ki (Substance-P receptor) was greater than 10 µM and the Ki [4] was greater than 10 µM. It also gave a Ki [5] greater than 10 µM, a Ki [6] greater than 10 µM and a Ki (Mu-type opioid receptor) greater than 10 µM. For the same compound, the Ki [7] was greater than 10 µM, the Ki (Histamine H1 receptor) was greater than 10 µM and the Ki [8] was greater than 10 µM. The Ki [9] was greater than 10 µM, the Ki [10] was greater than 10 µM and the Ki [11] was greater than 10 µM. The Ki (D(4) dopamine receptor) was 2.35 µM, the Ki [12] was greater than 10 µM and the Ki [13] was 3.82 µM. The Ki (Substance-K receptor) was greater than 10 µM, the Ki (Neuromedin-K receptor) was greater than 10 µM and the Ki [14] was greater than 10 µM. The Ki [15] was greater than 10 µM, the Ki [16] was greater than 10 µM and the Ki [17] was greater than 10 µM. For the same compound, the Ki [18] was greater than 10 µM, the Ki (B2 bradykinin receptor) was greater than 10 µM and the Ki [19] was greater than 10 µM. The Ki [20] was greater than 10 µM, the Ki [21] was greater than 10 µM and the Ki [22] was greater than 10 µM. It also gave a Ki [23] greater than 10 µM, a Ki [24] greater than 10 µM and a Ki [25] greater than 10 µM. The Ki (Neurotensin) was greater than 10 µM, the Ki [26] was greater than 10 µM and the Ki [27] was greater than 10 µM. For the same compound, the Ki [28] was greater than 10 µM, the Ki [29] was greater than 10 µM and the Ki (Thromboxane A2 receptor) was greater than 10 µM.
